Data from ChEMBL document CHEMBL1158312, “Cytotoxic triterpenes from a marine sponge, Stelletta sp” (J Nat Prod, 1996).
Activity calls are given as the source filed them.

Assays:
[1] = target: T1, Retinoic acid receptor RXR-alpha (Mus musculus) (UniProt P28700); experiment: Binding affinity to mouse RXRalpha assessed as induction of receptor conformational change at 1 uM
T1 sequence (whole entry): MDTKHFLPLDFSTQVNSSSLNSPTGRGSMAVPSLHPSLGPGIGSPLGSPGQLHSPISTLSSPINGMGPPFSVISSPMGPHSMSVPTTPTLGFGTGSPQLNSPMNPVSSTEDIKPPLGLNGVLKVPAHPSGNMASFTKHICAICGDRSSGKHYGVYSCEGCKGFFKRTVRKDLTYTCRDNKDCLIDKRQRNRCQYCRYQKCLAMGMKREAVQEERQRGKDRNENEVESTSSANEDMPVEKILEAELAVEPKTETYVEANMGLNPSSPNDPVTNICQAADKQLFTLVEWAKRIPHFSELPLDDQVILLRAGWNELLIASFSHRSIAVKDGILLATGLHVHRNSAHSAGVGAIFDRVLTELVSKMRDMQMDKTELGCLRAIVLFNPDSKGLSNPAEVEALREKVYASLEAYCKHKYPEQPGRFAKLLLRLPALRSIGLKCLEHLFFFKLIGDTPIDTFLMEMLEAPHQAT

[2] = target: T2, Retinoic acid receptor RXR-alpha (Homo sapiens) (UniProt P19793); experiment: Binding affinity to human RXRalpha assessed as induction of receptor conformational change at 1 uM
T2 sequence (whole entry): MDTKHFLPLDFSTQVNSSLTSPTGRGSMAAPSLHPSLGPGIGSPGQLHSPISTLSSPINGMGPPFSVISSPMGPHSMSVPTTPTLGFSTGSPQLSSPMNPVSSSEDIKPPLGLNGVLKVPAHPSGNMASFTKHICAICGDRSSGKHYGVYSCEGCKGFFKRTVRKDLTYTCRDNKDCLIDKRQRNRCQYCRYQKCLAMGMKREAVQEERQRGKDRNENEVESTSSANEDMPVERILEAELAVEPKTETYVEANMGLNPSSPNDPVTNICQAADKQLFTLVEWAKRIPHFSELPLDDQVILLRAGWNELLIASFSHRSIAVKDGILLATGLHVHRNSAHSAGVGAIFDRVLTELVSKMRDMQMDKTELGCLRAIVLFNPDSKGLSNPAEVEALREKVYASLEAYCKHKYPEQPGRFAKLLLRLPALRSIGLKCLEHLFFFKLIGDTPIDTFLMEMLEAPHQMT

[3] = target: T1, Retinoic acid receptor RXR-alpha (Mus musculus); experiment: Antagonist activity at mouse RXRalpha assessed as inhibition of 9-cis-retinoic acid-induced response by differential proteolytic sensitivity assay; format: functional

Measured: Activity

CC(/C=C/C=C(\C)c1ccc(C)c(=O)o1)=C1/C(=O)C[C@H]2[C@@]3(C)CCC(=O)C(C)(C)[C@@H]3CC[C@]12C
inactive: [1] | [2] | [3]

C/C(=C/C=C/C(C)=C/C=C/C(C)=C1\C(=O)C[C@H]2[C@@]3(C)CCC(=O)C(C)(C)[C@@H]3CC[C@]12C)C(=O)O
inactive: [1] | [2] | [3]
